Source: patent US8367584B2, “Naphthalene isoxazoline compounds for control of invertebrate pests” (E.I. du Pont de Nemours and Company, priority 2007, dated 2013)

How the values were obtained:
Assay type in all cases: in vivo
[1] = system: diamondback moth (Plutella xylostella); experiment: Test A: control of diamondback moth on radish plant, foliar spray; conditions: sprayed at 50 ppm; neonate larvae on radish plant; held 6 days at 25° C.; three replicates
Source text: For evaluating control of diamondback moth (Plutella xylostella), the test unit consisted of a small open container with a 12-14-day-old radish plant inside. This was pre-infested with about 50 neonate larvae that were dispensed into the test unit via corn-cob grits using a bazooka inoculator. The larvae moved onto the test plant after being dispensed into the test unit.
(§1) Test compounds were formulated using a solution containing 10% acetone, 90% water and 300 ppm X^77™ Spreader Lo-Foam Formula non-ionic surfactant containing alkylarylpolyoxyethylene, free fatty acids, glycols and isopropanol (Loveland Industries, Inc. Greeley, Colo., USA). The formulated compounds were applied in 1 mL of liquid through a SUJ2 atomizer nozzle with 1/8 JJ custom body (Spraying Systems Co. Wheaton, Ill., USA) positioned 1.27 cm (0.5 inches) above the top of each test unit. All experimental compounds in this test were sprayed at 50 ppm, and the test was replicated three times. After spraying of the formulated test compound, each test unit was allowed to dry for 1 h and then a black, screened cap was placed on top. The test units were held for 6 days in a growth chamber at 25° C. and 70% relative humidity. Plant feeding damage was then visually assessed based on foliage consumed and a pest mortality rating was also counted and calculated for each test unit.

[2] = system: fall armyworm (Spodoptera frugiperda); experiment: Test B: control of fall armyworm on corn (maize) plant, foliar spray; conditions: sprayed at 50 ppm; 1-day-old larvae on corn (maize) plant; three replicates
Method: as §1
For evaluating control of fall armyworm (Spodoptera frugiperda), the test unit consisted of a small open container with a 4-5-day-old corn (maize) plant inside. This was pre-infested (using a core sampler) with 10-15 1-day-old larvae on a piece of insect diet. Test compounds were formulated and sprayed at 50 ppm as described for Test A, and the test was replicated three times. After spraying, the test units were maintained in a growth chamber and then the control efficacy was rated for each test unit as described for Test A.

[3] = system: potato leafhopper (Empoasca fabae); experiment: Test C: control of potato leafhopper through contact and/or systemic means on Soleil bean plant; conditions: 144 h, sprayed at 250 ppm, adults on Soleil bean plant, held 6 days at 19-21° C., three replicates, read-out: control efficacy: mortality
Method: as §1
For evaluating control of potato leafhopper (Empoasca fabae) through contact and/or systemic means, the test unit consisted of a small open container with a 5-6-day-old Soleil bean plant (primary leaves emerged) inside. White sand was added to the top of the soil and one of the primary leaves was excised prior to application. Test compounds were formulated and sprayed as described for Test A. All experimental compounds in these tests were sprayed at 250 ppm, and the test was replicated three times. After spraying, the test units were allowed to dry for 1 hour before they were post-infested with 5 potato leafhoppers (18-21-day-old adults). A black, screened cap was placed on the top of the cylinder. The test units were held for 6 days in a growth chamber at 19-21° C. and 50-70% relative humidity. The control efficacy of each test unit was then visually assessed by the insect mortality.

[4] = system: silverleaf whitefly (Bemisia tabaci); experiment: Test F: control of silverleaf whitefly on cotton plant; conditions: 144 h, sprayed at 250 ppm, 2nd and 3rd instar nymphs on cotton plant, held 6 days, three replicates, read-out: control efficacy: mortality
Method: For evaluating control of silverleaf whitefly (Bemisia tabaci), the test unit consisted of a 14-21-day-old cotton plant grown in Redi-earth® media (Scotts Co.) with at least two true leaves infested with 2nd and 3rd instar nymphs on the underside of the leaves.
Test compounds were formulated in no more than 2 mL of acetone and then diluted with water to 25-30 mL. The formulated compounds were applied using a flat fan air-assisted nozzle (Spraying Systems 122440) at 10 psi (69 kPa). Plants were sprayed to run-off on a turntable sprayer (patent publication EP-1110617-A1). All experimental compounds in this screen were sprayed at 250 ppm, and the test was replicated three times. After spraying of the test compound, the test units were held for 6 days in a growth chamber at 50-60% relative humidity and 28° C. daytime and 24° C. nighttime temperature. Then the leaves were removed and then dead and live nymphs were counted to calculate percent mortality.

[5] = system: green peach aphid (Myzus persicae); experiment: Test E: control of green peach aphid through contact and/or systemic means on radish plant; conditions: 144 h, sprayed at 250 ppm, aphids on radish plant, held 6 days at 19-21° C., three replicates, read-out: control efficacy: mortality
Method: Test compounds were formulated using a solution containing 10% acetone, 90% water and 300 ppm X^77™ Spreader Lo-Foam Formula non-ionic surfactant containing alkylarylpolyoxyethylene, free fatty acids, glycols and isopropanol (Loveland Industries, Inc. Greeley, Colo., USA). The formulated compounds were applied in 1 mL of liquid through a SUJ2 atomizer nozzle with 1/8 JJ custom body (Spraying Systems Co. Wheaton, Ill., USA) positioned 1.27 cm (0.5 inches) above the top of each test unit. All experimental compounds in this test were sprayed at 50 ppm, and the test was replicated three times. After spraying of the formulated test compound, each test unit was allowed to dry for 1 h and then a black, screened cap was placed on top. The test units were held for 6 days in a growth chamber at 25° C. and 70% relative humidity. Plant feeding damage was then visually assessed based on foliage consumed and a pest mortality rating was also counted and calculated for each test unit. […]
Test compounds were formulated and sprayed as described for Test A. All experimental compounds in these tests were sprayed at 250 ppm, and the test was replicated three times. […] Each test unit was then visually assessed for insect mortality.

[6] = system: western flower thrip (Frankliniella occidentalis); experiment: Test D: control of western flower thrip through contact and/or systemic means on Soleil bean plant; conditions: sprayed at 250 ppm; adult thrips on Soleil bean plant; held 6 days at 25° C.; three replicates
Method: as §1
For evaluating control of the western flower thrip (Frankliniella occidentalis) through contact and/or systemic means, the test unit consisted of a small open container with a 5-7-day-old Soleil Bean plant inside. […] A mortality rating was assessed along with a plant damage rating for each test unit.

SMILES: O=C(NCc1ccc(C2=NOC(c3cc(Cl)cc(Cl)c3)(C(F)(F)F)C2)c2ccccc12)C1CC1 (stereo not shown) [Compound 1, N-[[4-[5-(3,5-dichlorophenyl)-4,5-dihydro-5-(trifluoromethyl)-3-isoxazolyl]-1-naphthalenyl]methyl]cyclopropanecarboxamide]
- control efficacy (20% or less feeding damage or 80% or more mortality) [1]: very good to excellent levels of control efficacy
- control efficacy (20% or less feeding damage or 80% or more mortality) [2]: very good to excellent levels of control efficacy
- mortality at 250 ppm [3]: ≥ 80%

SMILES: CC(C)C(=O)NCc1ccc(C2=NOC(c3cc(Cl)cc(Cl)c3)(C(F)(F)F)C2)c2ccccc12 (stereo not shown) [Compound 2]
- mortality at 250 ppm [4]: ≥ 80%
- control efficacy (20% or less feeding damage or 80% or more mortality) [1]: very good to excellent levels of control efficacy
- mortality at 250 ppm [5]: ≥ 80%
- control efficacy (20% or less feeding damage or 80% or more mortality) [2]: very good to excellent levels of control efficacy
- mortality at 250 ppm [3]: ≥ 80%

SMILES: N#CC(NC(=O)C1CC1)c1ccc(C2=NOC(c3cc(Cl)cc(Cl)c3)(C(F)(F)F)C2)c2ccccc12 (stereo not shown) [Compound 3]
- control efficacy (20% or less feeding damage or 80% or more mortality) [6]: very good to excellent levels of control efficacy
- control efficacy (20% or less feeding damage or 80% or more mortality) [1]: very good to excellent levels of control efficacy

SMILES: CC(C)C(=O)NC(C)c1ccc(C2=NOC(c3cc(C(F)(F)F)cc(C(F)(F)F)c3)(C(F)(F)F)C2)c2ccccc12 (stereo not shown) [Compound 4]
- control efficacy (20% or less feeding damage or 80% or more mortality) [1]: very good to excellent levels of control efficacy

SMILES: CC(C)C(=O)NCc1ccc(C2=NOC(c3cc(Cl)cc(C(F)(F)F)c3)(C(F)(F)F)C2)c2ccccc12 (stereo not shown) [Compound 5]
- mortality at 250 ppm [4]: ≥ 80%
- control efficacy (20% or less feeding damage or 80% or more mortality) [1]: very good to excellent levels of control efficacy
- mortality at 250 ppm [5]: ≥ 80%
- control efficacy (20% or less feeding damage or 80% or more mortality) [2]: very good to excellent levels of control efficacy
- mortality at 250 ppm [3]: ≥ 80%

SMILES: O=C(NCc1ccc(C2=NOC(c3cc(Cl)cc(C(F)(F)F)c3)(C(F)(F)F)C2)c2ccccc12)C1CC1 (stereo not shown) [Compound 6]
- control efficacy (20% or less feeding damage or 80% or more mortality) [1]: very good to excellent levels of control efficacy
- control efficacy (20% or less feeding damage or 80% or more mortality) [2]: very good to excellent levels of control efficacy
- mortality at 250 ppm [3]: ≥ 80%
